Laboratory results published in ChEMBL document CHEMBL5096191 (J Med Chem, 2021).

Tests used:
Type in all cases: functional, cell-based
[1] = molecular target: T1, Cannabinoid receptor 2 (Homo sapiens, UniProt P34972, S285L); assay: Partial agonist activity at CBR2 S2857.39L mutant (unknown origin) stably expressed in HEK293T assessed as decrease in forskolin induced cAMP level preincubated for 15 mins followed by forskolin addition incubated for 15 mins in presence of cannabidiol by HTRF assay
[2] = molecular target: T2, Cannabinoid receptor 2 (Homo sapiens, UniProt P34972, V36M); assay: Partial agonist activity at CBR2 V361.35M mutant (unknown origin) expressed in HEK293T assessed as increase in picometer shifts of reflected light wavelengths by DMR assay
[3] = molecular target: T1, Cannabinoid receptor 2; assay: Partial agonist activity at CBR2 S2857.39L mutant (unknown origin) expressed in HEK293T assessed as increase in ERK1/2 phosphorylation incubated for 7 mins in presence of cannabidiol by AlphaScreenSureFire method
[4] = molecular target: T3, Cannabinoid receptor 2 (Homo sapiens, UniProt P34972); assay: Partial agonist activity at wild type CB2 receptor (unknown origin) expressed in HEK293T assessed as increase in picometer shifts of reflected light wavelengths in presence of cannabidiol by DMR assay relative to control; settings: filed as partial agonist
[5] = system: Cannabinoid receptor 2 (Homo sapiens), P34972 [A282M]; assay: Partial agonist activity at CBR2 A2827.36M mutant (unknown origin) expressed in HEK293T assessed as increase in picometer shifts of reflected light wavelengths in presence of cannabidiol by DMR assay relative to control; settings: filed as partial agonist
[6] = molecular target: T4, Cannabinoid receptor 2 (Homo sapiens, UniProt P34972, V113M); assay: Partial agonist activity at CBR2 V1133.32M mutant (unknown origin) expressed in HEK293T assessed as increase in ERK1/2 phosphorylation incubated for 7 mins in presence of cannabidiol by AlphaScreenSureFire method
[7] = system: Cannabinoid receptor 2 (Homo sapiens), P34972 [A282M]; assay: Partial agonist activity at CBR2 A2827.36M mutant (unknown origin) expressed in HEK293T assessed as increase in ERK1/2 phosphorylation incubated for 7 mins in presence of cannabidiol by AlphaScreenSureFire method relative to control; settings: filed as partial agonist
[8] = molecular target: T4, Cannabinoid receptor 2; assay: Partial agonist activity at CBR2 V1133.32M mutant (unknown origin) stably expressed in HEK293T assessed as decrease in forskolin induced cAMP level preincubated for 15 mins followed by forskolin addition incubated for 15 mins by HTRF assay
[9] = molecular target: Cannabinoid receptor 2 (Homo sapiens, UniProt P34972, A282M); assay: Partial agonist activity at CBR2 A2827.36M mutant (unknown origin) stably expressed in HEK293T assessed as decrease in forskolin induced cAMP level preincubated for 15 mins followed by forskolin addition incubated for 15 mins in presence of cannabidiol by HTRF assay
[10] = system: Cannabinoid receptor 2 (Homo sapiens), P34972 [S285L]; assay: Partial agonist activity at CBR2 S2857.39L mutant (unknown origin) stably expressed in HEK293T assessed as decrease in forskolin induced cAMP level preincubated for 15 mins followed by forskolin addition incubated for 15 mins in presence of cannabidiol by HTRF assay relative to control; settings: filed as partial agonist, time 30.0 min
[11] = system: Cannabinoid receptor 2 (Homo sapiens), P34972 [V36M]; assay: Partial agonist activity at CBR2 V361.35M mutant (unknown origin) expressed in HEK293T assessed as increase in ERK1/2 phosphorylation incubated for 7 mins by AlphaScreenSureFire method relative to control; settings: filed as partial agonist
[12] = molecular target: T4, Cannabinoid receptor 2; assay: Partial agonist activity at CBR2 V1133.32M mutant (unknown origin) expressed in HEK293T assessed as increase in ERK1/2 phosphorylation incubated for 7 mins by AlphaScreenSureFire method
[13] = system: Cannabinoid receptor 2 (Homo sapiens), P34972 [V36M]; assay: Partial agonist activity at CBR2 V361.35M mutant (unknown origin) stably expressed in HEK293T assessed as decrease in forskolin induced cAMP level preincubated for 15 mins followed by forskolin addition incubated for 15 mins in presence of cannabidiol by HTRF assay relative to control; settings: filed as partial agonist, time 30.0 min
[14] = system: Cannabinoid receptor 2 (Homo sapiens), P34972 [V113M]; assay: Partial agonist activity at CBR2 V1133.32M mutant (unknown origin) expressed in HEK293T assessed as increase in picometer shifts of reflected light wavelengths by DMR assay relative to control; settings: filed as partial agonist
[15] = molecular target: T2, Cannabinoid receptor 2; assay: Partial agonist activity at CBR2 V361.35M mutant (unknown origin) stably expressed in HEK293T assessed as decrease in forskolin induced cAMP level preincubated for 15 mins followed by forskolin addition incubated for 15 mins in presence of cannabidiol by HTRF assay
[16] = system: Cannabinoid receptor 2 (Homo sapiens), P34972 [A282M]; assay: Partial agonist activity at CBR2 A2827.36M mutant (unknown origin) expressed in HEK293T assessed as increase in picometer shifts of reflected light wavelengths by DMR assay relative to control; settings: filed as partial agonist
[17] = molecular target: T3, Cannabinoid receptor 2; assay: Partial agonist activity at wild type CB2 receptor (unknown origin) expressed in HEK293T assessed as increase in ERK1/2 phosphorylation incubated for 7 mins in presence of cannabidiol by AlphaScreenSureFire method
[18] = system: Cannabinoid receptor 2 (Homo sapiens), P34972 [V36M]; assay: Partial agonist activity at CBR2 V361.35M mutant (unknown origin) expressed in HEK293T assessed as increase in picometer shifts of reflected light wavelengths by DMR assay relative to control; settings: filed as partial agonist
[19] = system: Cannabinoid receptor 2 (Homo sapiens), P34972 [V36M]; assay: Partial agonist activity at CBR2 V361.35M mutant (unknown origin) stably expressed in HEK293T assessed as decrease in forskolin induced cAMP level preincubated for 15 mins followed by forskolin addition incubated for 15 mins by HTRF assay relative to control; settings: filed as partial agonist, time 30.0 min
[20] = molecular target: T2, Cannabinoid receptor 2; assay: Partial agonist activity at CBR2 V361.35M mutant (unknown origin) expressed in HEK293T assessed as increase in ERK1/2 phosphorylation incubated for 7 mins by AlphaScreenSureFire method
[21] = system: Cannabinoid receptor 2 (Homo sapiens), P34972 [S285L]; assay: Partial agonist activity at CBR2 S2857.39L mutant (unknown origin) expressed in HEK293T assessed as increase in ERK1/2 phosphorylation incubated for 7 mins in presence of cannabidiol by AlphaScreenSureFire method relative to control; settings: filed as partial agonist
[22] = system: Cannabinoid receptor 2 (Homo sapiens), P34972 [V113M]; assay: Partial agonist activity at CBR2 V1133.32M mutant (unknown origin) stably expressed in HEK293T assessed as decrease in forskolin induced cAMP level preincubated for 15 mins followed by forskolin addition incubated for 15 mins by HTRF assay relative to control; settings: filed as partial agonist, time 30.0 min
[23] = molecular target: T4, Cannabinoid receptor 2; assay: Partial agonist activity at CBR2 V1133.32M mutant (unknown origin) expressed in HEK293T assessed as increase in picometer shifts of reflected light wavelengths by DMR assay
[24] = system: Cannabinoid receptor 2 (Homo sapiens), P34972 [V113M]; assay: Partial agonist activity at CBR2 V1133.32M mutant (unknown origin) expressed in HEK293T assessed as increase in ERK1/2 phosphorylation incubated for 7 mins by AlphaScreenSureFire method relative to control; settings: filed as partial agonist
[25] = molecular target: T3, Cannabinoid receptor 2; assay: Partial agonist activity at wild type CB2 receptor (unknown origin) stably expressed in HEK293T assessed as decrease in forskolin induced cAMP level preincubated for 15 mins followed by forskolin addition incubated for 15 mins in presence of cannabidiol by HTRF assay
[26] = system: Cannabinoid receptor 2 (Homo sapiens), P34972 [V36M]; assay: Partial agonist activity at CBR2 V361.35M mutant (unknown origin) expressed in HEK293T assessed as increase in picometer shifts of reflected light wavelengths in presence of cannabidiol by DMR assay relative to control; settings: filed as partial agonist

T4 sequence (P34972 whole entry V113M): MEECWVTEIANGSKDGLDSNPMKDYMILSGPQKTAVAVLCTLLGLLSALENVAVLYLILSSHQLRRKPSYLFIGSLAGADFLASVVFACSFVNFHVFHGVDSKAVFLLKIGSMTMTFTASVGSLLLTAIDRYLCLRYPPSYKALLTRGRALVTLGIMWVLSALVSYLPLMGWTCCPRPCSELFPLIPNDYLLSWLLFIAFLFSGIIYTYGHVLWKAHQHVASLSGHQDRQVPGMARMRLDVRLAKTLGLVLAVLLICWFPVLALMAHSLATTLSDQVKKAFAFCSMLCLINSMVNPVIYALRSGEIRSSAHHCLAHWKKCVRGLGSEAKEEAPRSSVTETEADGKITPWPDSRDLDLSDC
Sequence of Cannabinoid receptor 2 (Homo sapiens), P34972 [V113M] (P34972 whole entry V113M): as above
Sequence of Cannabinoid receptor 2 (Homo sapiens), P34972 [A282M] (P34972 whole entry A282M): as the sequence (P34972 whole entry V113M) above, with M113V, A282M counted along it
Sequence of Cannabinoid receptor 2 (Homo sapiens), P34972 [V36M] (P34972 whole entry V36M): as the sequence (P34972 whole entry V113M) above, with V36M, M113V counted along it
T2 sequence (P34972 whole entry V36M): as the sequence (P34972 whole entry V113M) above, with V36M, M113V counted along it
T3 sequence (P34972 whole entry): as the sequence (P34972 whole entry V113M) above, with M113V counted along it
Sequence of Cannabinoid receptor 2 (Homo sapiens), P34972 [S285L] (P34972 whole entry S285L): as the sequence (P34972 whole entry V113M) above, with M113V, S285L counted along it
T1 sequence (P34972 whole entry S285L): as the sequence (P34972 whole entry V113M) above, with M113V, S285L counted along it
Sequence of Cannabinoid receptor 2 (Homo sapiens, UniProt P34972, A282M) (P34972 whole entry A282M): as the sequence (P34972 whole entry V113M) above, with M113V, A282M counted along it

CCCC(C)(C)c1cc(O)c2c(c1)OC(C)(C)[C@@H]1CC=C(C)C[C@@H]21
EC50 [1]: 39.8 nM | EC50 [2]: 631 nM | EC50 [3]: 31.6 nM | Emax [4]: 117% | Emax [5]: 189% | EC50 [6]: 39.8 nM | Emax [7]: 352% | EC50 [8]: 20 nM | EC50 [9]: 7.94 nM | Emax [10]: 57.4% | Emax [11]: 363% | EC50 [12]: 20 nM | Emax [13]: 53% | Emax [14]: 79.9% | EC50 [15]: 15.8 nM | Emax [16]: 199% | EC50 [17]: 7.94 nM | Emax [18]: 193% | Emax [19]: 56.7% | EC50 [20]: 31.6 nM | Emax [21]: 291% | Emax [22]: 72.5% | EC50 [23]: 501 nM | Emax [24]: 276% | EC50 [25]: 50.1 nM | Emax [26]: 200%
